# Where two headings read alike, the source gives them in different places.
# Test system: Kentucky bluegrass (Poa pratenis L.) turf stand
# Settings: visual scale 1-9 (1=no burn or discoloration, 6=moderate, 9=severe), 3 replications; for Mean Phytotoxicity Score DAT 3: 3 days after treatment; for Mean Phytotoxicity Score DAT 5: 5 days after treatment; for Mean Phytotoxicity Score DAT 13: 13 days after treatment; for Mean Phytotoxicity Score DAT 20: 20 days after treatment
# From the text: SGN is defined as the median particle size (in millimeters), i.e., 50% of the particles (by weight) have a particle size above and below this number. The respective fertilizers were applied to a Kentucky bluegrass (Poa pratenis L.) turf stand at the Hancock Turfgrass Research Center on the campus of Michigan State University.
# The experimental design was a randomized complete block design with 3 replications. Fertilizer treatments were applied at rates of 1, 2, and 6 lbs. Nitrogen/1000 ft^2. Treatments were applied with a hand shaker container over a 12 ft^2 area. Irrigation (0.25″ water) was not applied until 3 days after treatment application. Visual ratings were conducted on a scale 1-9 with 1=no burn or discoloration, 6=moderate burn or discoloration, and 9=severe burn or discoloration.
smiles,measurement,setting,value
"NC(N)=O [UREA, urea]",Mean Phytotoxicity Score DAT 3,1 lb N/1000 ft^2,1
same,Mean Phytotoxicity Score DAT 5,1 lb N/1000 ft^2,1
same,Mean Phytotoxicity Score DAT 13,1 lb N/1000 ft^2,1
same,Mean Phytotoxicity Score DAT 20,1 lb N/1000 ft^2,1
same,Mean Phytotoxicity Score DAT 3,2 lb N/1000 ft^2,2.3
same,Mean Phytotoxicity Score DAT 5,2 lb N/1000 ft^2,3.7
same,Mean Phytotoxicity Score DAT 13,2 lb N/1000 ft^2,2.3
same,Mean Phytotoxicity Score DAT 20,2 lb N/1000 ft^2,1
same,Mean Phytotoxicity Score DAT 3,6 lb N/1000 ft^2,7.7
same,Mean Phytotoxicity Score DAT 5,6 lb N/1000 ft^2,8.2
same,Mean Phytotoxicity Score DAT 13,6 lb N/1000 ft^2,7.7
same,Mean Phytotoxicity Score DAT 20,6 lb N/1000 ft^2,4.0
